Measured values as given in patent publication US20090036544A1, “METHODS AND COMPOSITIONS FOR INHIBITING THE PROLIFERATION OF PROSTATE CANCER CELLS” (priority 2001, published 2009).

Key:
[1] = test system: LNCaP cells; assay: Cell proliferation assay (MTS) in LNCaP cells; format: cell-based, human; conditions: five days
Method: (§1) A human prostate cancer cell line, LNCaP (American Type Culture Collection (ATCC), Manassas, Va.), was grown in RPMI 1640 medium (Mediatech, Herndon, Va.) supplemented with 5% fetal bovine serum (FBS) and 5% CO2 at 37° C. until reaching approximately 50-70% confluence. The media were changed to serum-free RPMI 1640 at 24 hrs prior to performing experiments to deplete undesired steroids. Cells were then treated with 5% charcoal-stripped FBS RPMI 1640 containing POH (all from Sigma (St. Louis, Mo.), dissolved in DMSO) at indicated concentrations with or without 1 nM of mibolerone (Mib) (from New England Nuclear (St. Louis, Mo.), dissolved in ethanol), a non-metabolizable synthetic androgen. Equivalent amounts of solvent were added to control cells.
(§2) LNCaP cells were seeded at 4×10^4/well in 24-well dishes and treated with POH at indicated concentrations in the presence of 1 nM Mib. Five days later, cell proliferation was measured using an MTS assay kit (Promega, Madison, Wis.), and PSA and hK2 levels in spent media were determined by the Tandem-E PSA kit (Hybritech Inc., San Diego, Calif.) or Mayo's hK2 assay (Zhang et al., 1999, Endocrin., 140:1665-71). Protein levels of PSA and hK2 were normalized to the MTS measurements.

[2] = test system: androgen receptor; assay: Transient transfection luciferase reporter assay, PSA promoter, in LNCaP cells; format: cell-based, human; conditions: 1 nM Mib, 24 hrs, FIG. 3A
Excerpt: (§3) The 6 Kb PSA promoter and the androgen receptor promoter constructs (pGL3 SV40, pGL3 SV40-3 ARE, pGL3 or PSA promoter/pGL3) were described previously (Id). To make an hk2 androgen responsive element (hk2 ARE) construct, a DNA fragment containing three copies of hk2 ARE (5′-[…]-3′ (SEQ ID NO:1)) was synthesized by the Mayo Molecular Core Facility. The synthesized fragment, including SacI and XhoI restriction enzyme sites at the 5′ and 3′-end, respectively, was digested with SacI and XhoI according to manufacturer's instructions and inserted into a pre-cut pGL3-Promoter vector (Promega). The fidelity of this construct was confirmed by DNA sequencing.
(§4) LNCaP cells in duplicate plates were co-transfected with a CMV-β galactosidase (β-gal) expression vector (0.3 μg/plate) and one of the following: a pGL3-Basic luciferase vector (Promega) containing the PSA promoter (nucleotides 1-5836 of GenBank Accession No. U37672), a pGL3-Promoter luciferase vector (Promega) containing three copies of hk2 ARE, a PGL3 vector or PSA promoter/PGL3 vector. Transfections were performed using a liposome method with dimethyldioctadecyl-ammonium bromide (Sigma) and L-lecithin (Sigma) (4:10). Cells were then treated with POH in the presence or absence of 1 nM Mib for 24 hrs. Cell extracts were prepared and used for luciferase and β-gal assays (Promega). […]

[3] = test system: c-jun; assay: Expression of c-jun protein after POH treatment; format: cell-based; conditions: normalized data, FIG. 6
Method: In order to ascertain how androgen receptor function was being inhibited by POH at levels below 1 μM, c-jun was examined. […] The graph depicts the normalized data. This experiment was repeated twice and representative data is shown.

[4] = test system: androgen receptor; assay: Transient transfection luciferase reporter assay, 3 copies of hK2 ARE, in LNCaP cells; format: cell-based, human; conditions: minimum SV40 promoter and 3 copies of hK2 ARE, 1 nM Mib, 24 hrs, FIG. 3B
Excerpt: as §3, §4

[5] = test system: androgen receptor promoter; assay: Luciferase reporter assay with androgen receptor promoter in LNCaP cells; format: cell-based, human
Excerpt: as §3, §4

[6] = test system: hK2; assay: hK2 quantification in spent media of LNCaP cells (Mayo's hK2 assay); format: cell-based, human; conditions: 1 nM Mib, five days, normalized to MTS; FIG. 2B
Method: as §1, §2

[7] = test system: PSA; assay: PSA quantification in spent media of LNCaP cells (Tandem-E PSA kit); format: cell-based, human; conditions: 1 nM Mib, five days, normalized to MTS; FIG. 2A
Method: as §1, §2

[8] = test system: androgen receptor; assay: Western blot analysis of androgen receptor protein in LNCaP cells; format: cell-based, human; conditions: POH until a concentration of 1 μM is reached, 1 nM Mib, 24 hrs
Method: LNCaP cells were treated with the indicated concentrations of POH in the presence of 1 nM Mib for 24 hrs. Cells were then harvested, and whole-cell lysates and nuclear extracts were prepared as described (Mitchell et al., 1999, Cancer Res., 59:5892-5). Western blot analysis was performed according to the protocol described (Id). A mouse antibody against the human androgen receptor (1:1000 or 1:2000 dilution) (Pharmingen, San Diego, Calif.) or human tubulin (1:10,000 dilution) (Santa Cruz, Santa Cruz, Calif.) was used as the primary antibody. Ponceau S staining was used for monitoring protein loading and transfer efficiency (Id).

Row | SMILES | LNCaP cell proliferation ([1]; presence of Mib (1 nM), FIG. 1) | androgenic inducibility of the PSA promoter (luciferase reporter) [2] | level of c-jun [3] | ARE-regulated luciferase activity [4] | androgen receptor promoter activity ([5]; POH at 1 μM) | androgen receptor promoter activity ([5]; POH below 1 μM) | proliferation of LNCaP cells ([1]; POH in the presence of 1 nM Mib, p<0.05, FIG. 1) | accumulation of hK2 protein in LNCaP cells stimulated by androgens [6] | accumulation of PSA protein in LNCaP cells stimulated by androgens [7] | androgen-enhanced androgen receptor protein levels [8]
1 | C[C@@H]1CC2=CC(=O)CC[C@@H]2[C@H]2CC[C@@]3(C)[C@@H](CC[C@]3(C)O)[C@@H]21 [Mib, mibolerone] | significantly increased | – | – | – | – | – | – | – | – | –
2 | C=C(C)[C@@H]1CC=C(CO)CC1 [POH, Perillyl alcohol] | – | significantly reduced | up to 3.5 times the control levels | inhibited | drastically reduced | not affected | significantly inhibited | inhibited | inhibited | not affected
